What was measured:
PD-1/PD-L1 [1] = assay: PD-1/PD-L1 expression rate in tumor tissues of Opdivo-resistant Lewis lung cancer mice; format: in vivo; settings: tumor tissues of drug-resistant (Opdivo) Lewis lung cancer mice
Description: (§1) The positive expression rate of PD-1/PD-L1 in tumor tissues was detected by immunohistochemical SP method.

PD-1/PD-L1 [2] = assay: PD-1/PD-L1 expression rate in transplanted tumor tissues, multidrug resistance model; format: in vivo; settings: transplanted tumor tissues of B16 melanoma mice with multidrug resistance (as titled), Example 5 regimen
Description: as §1

[3] = test system: CD4+T and CD8+T lymphocytes; assay: Number of CD4+T and CD8+T cells in Opdivo-resistant Lewis lung cancer mice; format: in vivo; settings: drug-resistant (Opdivo) Lewis lung cancer mice, average of 6 high power fields
Procedure: (§2) The number of CD4+T and CD8+T lymphocytes was analyzed by immunofluorescence staining, and the average number of CD4+T and CD8+T cells infiltrated in 6 high power fields was counted.

[4] = test system: CD4+T and CD8+T lymphocytes; assay: Number of CD4+T and CD8+T cells (immunofluorescence), drug-resistant B16 melanoma transplanted tumor; format: in vivo; settings: transplanted tumor of drug-resistant B16 melanoma in mice, average of 6 high power fields
Procedure: as §2

[5] = test system: CD4+T and CD8+T lymphocytes; assay: Number of CD4+T and CD8+T lymphocytes in transplanted tumor of multidrug-resistant Lewis lung cancer mice; format: in vivo; settings: average of 6 high power fields
Procedure: as §2

[6] = test system: drug-resistant A549 lung cancer cell lines; assay: MTT: non-cytotoxic concentration of test drugs, drug-resistant A549; format: cell-based, human; settings: 48 h
Procedure: The culture and treatment methods of cells and drug-resistant cells were the same as above. For the experiment, there were eight groups: blank group, control group and test-drug groups. […] The plates were placed in an incubator and incubated for 48 h, then 5 mg/ml MTT (20 μl) was added to each well, and the plate was further incubated for 4 h.

[7] = test system: Opdivo-resistant Lewis lung cancer; assay: Antitumor effect (tumor volume, weight, inhibition rate) in Opdivo-resistant Lewis lung cancer mice; format: in vivo; settings: for Tumor volume (cm^3): 30 mg/kg i.p. once a day, + Opdivo groups: test drug 5 days, then Opdivo 30 mg/kg every other day; for Tumor inhibition rate (%) / Tumor weight: 30 mg/kg i.p., + Opdivo groups 30 + 30 mg/kg
Procedure: The concentration of cell lines was adjusted to 1×10^7/ml with the culture medium. 1×10^7/ml of cells were subcutaneously injected into the right armpit of mice, 0.1 ml per mouse.
The model mice were randomly divided into groups, eight for one group, and included test drug group 1, test drug group 2, test drug group 3, test drug group 4, positive drug Opdivo group, single drug chlorogenic acid group, test drug 1+Opdivo group, test drug 2+Opdivo group, test drug 3+Opdivo group, test drug 4+Opdivo group, and negative group, respectively.
Test drug group: from the second day after stopping administration to the model, the group received drug by intraperitoneal injection, once a day, 30 mg/kg.
Single drug group: from the second day after stopping administration to the model, the group received drug by intraperitoneal injection, once a day, 30 mg/kg.
Test drug+Opdivo group: from the second day after stopping administration to the model, the group received the test drug by intraperitoneal injection, once a day, and the test drug was stopped after administrating for 5 consecutive days; on the next day, Opdivo was intraperitoneally injected, once every other day, with the dosage of 30 mg/kg.
Positive drug group: once every other day, 30 mg/kg.
Negative group: normal saline was intraperitoneally injected, once a day, the same amount of saline.
Before each administration, the tumor volume was measured, and the experiment was stopped when the average tumor volume of negative group was greater than 1.5 cm^3.
(§3) After completion of administration, the experiment was stopped, and the mice were killed by cervical dislocation and weighed. The tumor was stripped and weighed, to calculate the tumor inhibition rate.

[8] = test system: drug-resistant A375 melanoma cell lines; assay: MTT: non-cytotoxic concentration of test drugs, drug-resistant A375; format: cell-based, human; settings: 48 h
Procedure: The culture and treatment methods of cells and drug-resistant cells were the same as above.
For the experiment, there were eight groups: blank group, control group and test-drug groups. […] The plates were placed in an incubator and incubated for 48 h, then 5 mg/ml MTT (20 μl) was added to each well, and the plate was further incubated for 4 h.

[9] = test system: multi-drug resistant Lewis lung cancer; assay: Tumor weight and inhibition rate, transplanted multi-drug resistant Lewis lung cancer; format: in vivo, mice; settings: multi-drug resistant Lewis lung cancer mice; test drug 30 mg/kg i.p. 5 days, then gemcitabine 300 mg/kg or dacarbazine 60 mg/kg every other day
Procedure: Lewis lung cancer cell lines were induced by the increased gradient concentration of dacarbazine and gemcitabine, and established by clone screening, then cultured without drug before the experiment.
After the drug was removed from the drug-resistant cell lines, the cell concentration was adjusted to 1×10^7/ml with the culture medium. 1×10^7/ml of cells were subcutaneously injected into the right armpit of mice, 0.1 ml per mouse.
After the average diameter of tumor reached […], the mice were randomly divided into test drug group 1, test drug group 2, test drug group 3, test drug group 4, test drug group 5, test drug group 6, positive drug group, and negative group, respectively.
Test drug group: the test drug group was first intraperitoneally injected, once a day, 30 mg/kg/time, for 5 consecutive days; administration was stopped, and the positive drug was given by intraperitoneal injection on the next day; wherein the positive drug dacarbazine was administrated once every other day, 60 mg/kg/time; wherein the positive drug gemcitabine was given once every other day, 300 mg/kg/time.
Positive drug group: positive drug dacarbazine was given once every other day, 60 mg/kg/time; positive drug gemcitabine was given once every other day, 300 mg/kg/time.
Negative group: normal saline was intraperitoneally injected, once a day, for 15 consecutive days.
as §3

[10] = test system: CD4+T and CD8+T lymphocytes; assay: Number of CD4+T and CD8+T cells in Opdivo-resistant B16 melanoma mice; format: in vivo; settings: drug-resistant (Opdivo) B16 melanoma mice, average of 6 high power fields
Procedure: as §2

[11] = test system: CD4+T and CD8+T lymphocytes; assay: Number of CD4+T and CD8+T cells (immunofluorescence), drug-resistant Lewis lung cancer transplanted tumor; format: in vivo; settings: transplanted tumor of drug-resistant Lewis lung cancer in mice, average of 6 high power fields
Procedure: as §2

PD-1/PD-L1 [12] = assay: PD-1/PD-L1 expression rate (immunohistochemical SP method), drug-resistant B16 melanoma tumor tissue; format: in vivo; settings: transplanted tumor tissues of drug-resistant B16 melanoma in mice, Example 3 regimen
Description: as §1

[13] = test system: drug-resistant A375 melanoma cell lines; assay: Reversal of dacarbazine resistance in drug-resistant A375 cells (MTT); format: cell-based, human; settings: test drug 30 μg/ml; for Reversal index: IC50 before reversal/IC50 after reversal, drug-resistant A375
Procedure: The culture and experimental methods of cells were the same as above.
In the experiment, there are following groups: drug-resistant cell negative group, drug-resistant cells+test drug group 1 (30 μg/ml), drug-resistant cells+test drug group 2 (30 μg/ml), drug-resistant cells+test drug group 3 ([…]), drug-resistant cells+test drug group 4 (30 μg/ml), drug-resistant cells+test drug group 5 (30 μg/ml), drug-resistant cells+test drug group 6 (30 μg/ml).
Each test drug group was added with different concentrations of dacarbazine, each concentration including 3 replicate wells, and the OD value of each well was measured, to observe whether the cytotoxicity was shown. Each test drug and dacarbazine were respectively used to act on drug resistant cells, so as to compare with the effects of dacarbazine administrated alone on drug-resistant cells, and the IC50 value of dacarbazine against drug-resistant cell lines was calculated, as well as the IC50 value of each test drug after reversing drug-resistant cell lines.
Reversal index=IC50 value before reversal/IC50 value after reversal.

Compound	Expression rate of PD-1/PD-L1, Positive PD-L1 (PD-1/PD-L1 [1]) [%]	Expression rate of PD-1/PD-L1, Positive PD-L1 (PD-1/PD-L1 [2]) [%]	CD4 + T cells (number) [3]	CD8 + T cells (number) [3]	CD4 + T cells (number) [4]	CD8 + T cells (number) [4]	CD4 + T cells (number) [5]	CD8 + T cells (number) [5]	Non-cytotoxic concentration (all inhibition rates <10%) [6] [µg/mL]	Tumor volume (cm^3) [7] [cm^3]	Tumor inhibition rate (%) [7] [%]	Tumor weight [7] [g]	Non-cytotoxic concentration (all inhibition rates <10%) [8] [µg/mL]	Tumor weight [9] [g]	Tumor-inhibition rate (%) [9] [%]	CD4 + T cells (number) [10]	CD8 + T cells (number) [10]	CD4 + T cells (number) [11]	CD8 + T cells (number) [11]	Expression rate of PD-1/PD-L1, Positive PD-L1 (PD-1/PD-L1 [12]) [%]	other results
O=C(/C=C/c1ccc(O)c(O)c1)O[C@@H]1C[C@](O)(C(=O)O)C[C@@H](O)[C@H]1O [Chlorogenic acid, chlorogenic acid]	70.36	72.26	66.52 ± 4.63	119.38 ± 6.55	69.43 ± 4.72	88.62 ± 5.38	79.24 ± 4.06	126.52 ± 11.85	1256	1.592 ± 0.704	3.18	2.46 ± 0.72	830	1.92 ± 0.69	18.64	74.63 ± 6.35	89.42 ± 2.52	80.63 ± 5.08	106.62 ± 6.88	72.26	continuous treatment effect / effect on tumor volume control (in words) [7]: not obvious; Reversal index [13]: 1.17; reversal effect on the drug-resistant A375 cell lines (in words) [13]: no significant reversal effect
O=C(/C=C/c1ccc(O)cc1)O[C@@H]1C[C@](O)(C(=O)O)C[C@@H](O)[C@H]1O [Coumaroylquinic acid, coumaroylquinic acid]	71.89	73.39	65.12 ± 5.17	113.64 ± 8.23	62.83 ± 7.51	91.53 ± 3.54	79.11 ± 5.36	122.08 ± 14.36	1142	1.584 ± 0.424	3.88	2.48 ± 0.55	862	2.15 ± 0.72	8.90	75.09 ± 5.23	88.26 ± 5.36	78.75 ± 6.39	98.53 ± 4.98	73.39	Reversal index [13]: 1.06; reversal effect on the drug-resistant A375 cell lines (in words) [13]: no significant reversal effect

From patent publication US20210085630A1, “PHARMACEUTICAL COMPOSITION AND USE THEREOF IN PREPARING DRUG FOR TREATING TUMOR MULTI-DRUG RESISTANCE” (SICHUAN JIUZHANG BIOLOGICAL SCIENCE AND TECHNOLOGY CO., LTD., priority 2018, published 2021)
